The text below walks through data of ChEMBL document CHEMBL4364342, “Structural and Molecular Insight into Resistance Mechanisms of First Generation cMET Inhibitors” (ACS Med Chem Lett, 2019).

The structures appear in SMILES notation.

In general, IC50 refers to the concentration that gives 50% inhibition. Read a high IC50 as a need for much substance. The term GI50 denotes the concentration giving 50% growth inhibition. A high value points to less potent growth inhibition.

Assay [1] concerns the target T1, Hepatocyte growth factor receptor (Homo sapiens, UniProt P08581, D1228V). Kind of assay: Inhibition of c-MET D1228V mutant phosphorylation at Tyr1234/Tyr1235 residues in CRISPR/Cas9 modified human NCI-H1993 cells incubated for 4 hrs by HTRF assay. The assay is classed as cell-based. (In general: In TR-FRET formats the signal depends on donor and acceptor labels being close together.)

Assay [2] deals with T2, Hepatocyte growth factor receptor (Homo sapiens, UniProt P08581). Description: Inhibition of c-Met phosphorylation at Tyr 1234/Tyr1235 residues in human NCI-H1993 cells incubated for 4 hrs by HTRF assay. It counts as cell-based.
The target in assay [3] is T1, Hepatocyte growth factor receptor. Description: Inhibition of N-terminal NH-tagged and avi-tagged dephosphorylated c-MET D1228V mutant (956 to 1390 residues) (unknown origin) expressed in sf21 cells using poly (Glu,Tyr) as substrate measured after 60 mins by ADP-Glo kinase assay. A general note: ADP-Glo turns the ADP formed in a reaction into a luminescent signal.
The target of assay [4] is T2, Hepatocyte growth factor receptor. Description: Inhibition of wild type N-terminal NH-tagged and avi-tagged dephosphorylated c-MET (956 to 1390 residues) (unknown origin) expressed in sf21 cells using poly (Glu,Tyr) as substrate measured after 60 mins by ADP-Glo kinase assay.
For assay [5], the system named is NCI-H1993. Description: Growth inhibition of CRISPR/Cas9 modified human NCI-H1993 cells harboring cMET D1228V mutant incubated for 3 days by cell titer-glo luminescent cell viability assay. It counts as functional. As to conditions: NCI-H1993, 72 h. (In general: ATP-based viability assays read luminescence as a measure of living cells.)
For assay [6], the system named is NCI-H1993. Description: Growth inhibition of wild type human NCI-H1993 cells incubated for 3 days by cell titer-glo luminescent cell viability assay. As to conditions: NCI-H1993, 72 h. The assay is classed as functional.
In assay [7] the test system is NCI-H1993. Description: Resistance index, ratio of GI50 for CRISPR/Cas9 modified human NCI-H1993 cells harboring cMET D1228V mutant to GI50 for wild type human NCI-H1993 cells by cell-titer glo luminescent cell viability assay. The assay is classed as functional.

Turning to `CCOc1ccn(-c2ccc(F)cc2)c(=O)c1C(=O)Nc1ccc(Oc2ccnc(N)c2Cl)c(F)c1` [BMS-777607], the IC50 is 0.0123 to 0.214 µM in assay [1], 0.0123 to 0.214 µM in assay [2], less than 0.00251 µM in assay [3] and less than 0.00251 µM in assay [4].

Take `COc1cc2c(Oc3ccc(NC(=O)C4(C(=O)Nc5ccc(F)cc5)CC4)cc3F)ccnc2cc1OCCCN1CCOCC1` [FORETINIB]: the figures for the GI50 in assay [5] and in assay [6] were 0.0525 µM and 0.0617 µM, respectively.

Consider `C[C@@H](c1ccc2nccn2c1)n1nnc2ncc(-c3cnn(C)c3)nc21` [SAVOLITINIB], for which the IC50 in assay [1] is more than 31.6 µM; in assay [2], 0.002 µM; in assay [3], 0.676 µM; in assay [4] it was less than 0.00251 µM. Also, the RatioGI50 in assay [7] is more than 800. In addition, the figures for the GI50 in assay [5] and in assay [6] were 8.32 µM and 0.00933 µM, respectively.
